Results taken from ChEMBL document CHEMBL4725357, “Elucidating the Structural Requirement of Uridylpeptide Antibiotics for Antibacterial Activity” (J Med Chem, 2020).
pIC50: −log10 of the molar value. ≈ marks a conversion by molar mass, not a printed value.

Assays:
[1] = test system: Pseudomonas aeruginosa; test: Antibacterial activity against Pseudomonas aeruginosa PAO1 incubated for 18 hrs by CLSI based broth microdilution method; assay type: functional
[2] = test system: Pseudomonas aeruginosa; test: Antibacterial activity against Pseudomonas aeruginosa serotype I IID1010 incubated for 18 hrs by CLSI based broth microdilution method; assay type: functional
[3] = test system: Pseudomonas aeruginosa; test: Antibacterial activity against Pseudomonas aeruginosa serotype M IID5018 incubated for 18 hrs by CLSI based broth microdilution method; assay type: functional
[4] = test system: Pseudomonas aeruginosa; test: Antibacterial activity against Pseudomonas aeruginosa isolate 1485 incubated for 18 hrs by CLSI based broth microdilution method; assay type: functional
[5] = test system: Pseudomonas aeruginosa; test: Antibacterial activity against Pseudomonas aeruginosa ATCC 27853 incubated for 18 hrs by CLSI based broth microdilution method; assay type: functional
[6] = test system: Pseudomonas aeruginosa; test: Antibacterial activity against Pseudomonas aeruginosa serotype A IID1001 incubated for 18 hrs by CLSI based broth microdilution method; assay type: functional
[7] = test system: Pseudomonas aeruginosa; test: Antibacterial activity against Pseudomonas aeruginosa serotype B IID5004 incubated for 18 hrs by CLSI based broth microdilution method; assay type: functional
[8] = Inhibition of Staphylococcus aureus MraY using UDPMurNAc-dansylpentapeptide as substrate incubated for 3 hrs by fluorescence method
[9] = test system: Pseudomonas aeruginosa; test: Antibacterial activity against Pseudomonas aeruginosa serotype C IID1021 incubated for 18 hrs by CLSI based broth microdilution method; assay type: functional
[10] = test system: Pseudomonas aeruginosa; test: Antibacterial activity against Pseudomonas aeruginosa serotype F IID1006 incubated for 18 hrs by CLSI based broth microdilution method; assay type: functional
[11] = Substrate activity at NppA1A2BCD assessed as antibacterial activity against Pseudomonas aeruginosa PAO1 PW4182; assay type: ADME; details: pseudomonas aeruginosa pao1, 720 h; time 30 day
[12] = test system: Pseudomonas aeruginosa; test: Antibacterial activity against Pseudomonas aeruginosa isolate 9728b incubated for 18 hrs by CLSI based broth microdilution method; assay type: functional
[13] = test system: Pseudomonas aeruginosa; test: Antibacterial activity against Pseudomonas aeruginosa serotype B IID1007 incubated for 18 hrs by CLSI based broth microdilution method; assay type: functional
[14] = test system: HepG2; test: Cytotoxicity against human HepG2 cells after 24 hrs by CCK-8 assay; assay type: cell-based; details: HepG2, 24 h
[15] = Substrate activity at NppA1A2BCD assessed as antibacterial activity against mureidomycin-resistant Pseudomonas aeruginosa PAO1 harboring NppA1A2BCD mutant measured at day 1 post mureidomycin-challenge; assay type: ADME
[16] = test system: Pseudomonas aeruginosa; test: Antibacterial activity against Pseudomonas aeruginosa isolate 2931 incubated for 18 hrs by CLSI based broth microdilution method; assay type: functional
[17] = test system: Pseudomonas aeruginosa; test: Antibacterial activity against Pseudomonas aeruginosa serotype K IID1012 incubated for 18 hrs by CLSI based broth microdilution method; assay type: functional
[18] = Substrate activity at NppA1A2BCD assessed as antibacterial activity against mureidomycin-resistant Pseudomonas aeruginosa PAO1 harboring NppA1A2BCD mutant measured at day 30 post mureidomycin-challenge; assay type: ADME
[19] = test system: Pseudomonas aeruginosa; test: Antibacterial activity against Pseudomonas aeruginosa serotype E IID1130 incubated for 18 hrs by CLSI based broth microdilution method; assay type: functional
[20] = Substrate activity at NppA1A2BCD assessed as antibacterial activity against mureidomycin-resistant Pseudomonas aeruginosa PAO1 harboring NppA1A2BCD mutant measured at day 2 post mureidomycin-challenge; assay type: ADME
[21] = test system: Pseudomonas aeruginosa; test: Antibacterial activity against Pseudomonas aeruginosa serotype B IID1013 incubated for 18 hrs by CLSI based broth microdilution method; assay type: functional
[22] = test system: Pseudomonas aeruginosa; test: Antibacterial activity against Pseudomonas aeruginosa serotype H IID1009 incubated for 18 hrs by CLSI based broth microdilution method; assay type: functional
[23] = test system: Pseudomonas aeruginosa; test: Antibacterial activity against multidrug-resistant Pseudomonas aeruginosa MDRP62 incubated for 18 hrs by CLSI based broth microdilution method; assay type: functional
[24] = test system: Pseudomonas aeruginosa; test: Antibacterial activity against Pseudomonas aeruginosa serotype D IID1004 incubated for 18 hrs by CLSI based broth microdilution method; assay type: functional
[25] = Substrate activity at NppA1A2BCD assessed as antibacterial activity against Pseudomonas aeruginosa PAO1 PW4181; assay type: ADME; details: pseudomonas aeruginosa pao1, 720 h; time 30 day
[26] = test system: Pseudomonas aeruginosa; test: Antibacterial activity against Pseudomonas aeruginosa isolate 1483 incubated for 18 hrs by CLSI based broth microdilution method; assay type: functional
[27] = test system: Pseudomonas aeruginosa; test: Antibacterial activity against Pseudomonas aeruginosa serotype B IID1002 incubated for 18 hrs by CLSI based broth microdilution method; assay type: functional
[28] = test system: Pseudomonas aeruginosa; test: Resistance index, ratio of MIC for Pseudomonas aeruginosa PAO1 incubated overnight to MIC for Pseudomonas aeruginosa PAO1 incubated for 18 hrs; assay type: functional
[29] = test system: Pseudomonas aeruginosa; test: Antibacterial activity against Pseudomonas aeruginosa serotype M IID1015 incubated for 18 hrs by CLSI based broth microdilution method; assay type: functional
[30] = test system: Pseudomonas aeruginosa; test: Antibacterial activity against Pseudomonas aeruginosa serotype J IID1011 incubated for 18 hrs by CLSI based broth microdilution method; assay type: functional
[31] = test system: Pseudomonas aeruginosa; test: Antibacterial activity against Pseudomonas aeruginosa isolate 2867 incubated for 18 hrs by CLSI based broth microdilution method; assay type: functional
[32] = test system: Pseudomonas aeruginosa; test: Antibacterial activity against Pseudomonas aeruginosa serotype L IID5141 incubated for 18 hrs by CLSI based broth microdilution method; assay type: functional
[33] = test system: Pseudomonas aeruginosa; test: Antibacterial activity against Pseudomonas aeruginosa serotype G IID1020 incubated for 18 hrs by CLSI based broth microdilution method; assay type: functional
[34] = Inhibition of Staphylococcus aureus MraY using UDPMurNAc-dansylpentapeptide as substrate incubated for 3 to 4 hrs by fluorescence method
[35] = test system: Pseudomonas aeruginosa; test: Antibacterial activity against Pseudomonas aeruginosa incubated for 18 hrs by CLSI based broth microdilution method; assay type: functional

| Structure (SMILES) | MIC [1] | MIC [2] | MIC [3] | MIC [4] | MIC [5] | MIC [6] | MIC [7] | pIC50 [8] | MIC [9] | MIC [10] | MIC [12] | MIC [13] | pIC50 [14] | MIC [16] | MIC [17] | MIC [19] | MIC [21] | MIC [22] | MIC [23] | MIC [24] | other results |
| --- | --- | --- | --- | --- | --- | --- | --- | --- | --- | --- | --- | --- | --- | --- | --- | --- | --- | --- | --- | --- | --- |
| CSCC[C@H](NC(=O)N[C@@H](Cc1cccc(O)c1)C(=O)O)C(=O)N[C@H](C(=O)N/C=C1\O[C@@H](n2ccc(=O)[nH]c2=O)[C@H](O)[C@@H]1O)[C@H](C)N(C)C(=O)[C@@H](N)Cc1cccc(O)c1 | 4 µg/mL (≈ 4.67 µM) | 32 µg/mL (≈ 37.3 µM) | > 128 µg/mL | 4 µg/mL (≈ 4.67 µM) | 4 µg/mL (≈ 4.67 µM) | 64 µg/mL (≈ 74.7 µM) | 8 µg/mL (≈ 9.34 µM) | 8.89 | 8 µg/mL (≈ 9.34 µM) | > 128 µg/mL | 32 µg/mL (≈ 37.3 µM) | 32 µg/mL (≈ 37.3 µM) | < 4.00 | 16 µg/mL (≈ 18.7 µM) | 16 µg/mL (≈ 18.7 µM) | 16 µg/mL (≈ 18.7 µM) | > 128 µg/mL | 8 µg/mL (≈ 9.34 µM) | 16 µg/mL (≈ 18.7 µM) | 8 µg/mL (≈ 9.34 µM) | MIC [11]: > 128 µg/mL; MIC [15]: > 64 µg/mL; MIC [18]: > 64 µg/mL; MIC [20]: > 64 µg/mL; MIC [25]: > 128 µg/mL; MIC [26]: 8 µg/mL (≈ 9.34 µM); MIC [27]: 16 µg/mL (≈ 18.7 µM); Ratio [28]: 8; MIC [29]: 16 µg/mL (≈ 18.7 µM); MIC [30]: 16 µg/mL (≈ 18.7 µM); MIC [31]: 8 µg/mL (≈ 9.34 µM); MIC [32]: 4 µg/mL (≈ 4.67 µM); MIC [33]: 8 µg/mL (≈ 9.34 µM) |
| C[C@H](N)C(=O)N(C)[C@@H](C)[C@H](NC(=O)[C@H](C)NC(=O)N[C@@H](Cc1c[nH]c2ccccc12)C(=O)O)C(=O)N/C=C1\O[C@@H](n2ccc(=O)[nH]c2=O)[C@H](O)[C@@H]1O | 16 µg/mL (≈ 22 µM) | > 128 µg/mL | > 128 µg/mL | 16 µg/mL (≈ 22 µM) | 32 µg/mL (≈ 44 µM) | > 128 µg/mL | 64 µg/mL (≈ 87.9 µM) | 7.36 | 16 µg/mL (≈ 22 µM) | > 128 µg/mL | > 128 µg/mL | > 128 µg/mL | < 4.00 | > 128 µg/mL | 64 µg/mL (≈ 87.9 µM) | > 128 µg/mL | > 128 µg/mL | 32 µg/mL (≈ 44 µM) | > 128 µg/mL | > 128 µg/mL | pIC50 [34]: 7.38; MIC [26]: > 128 µg/mL; MIC [27]: > 128 µg/mL; MIC [29]: > 128 µg/mL; MIC [30]: > 128 µg/mL; MIC [31]: 32 µg/mL (≈ 44 µM); MIC [32]: 32 µg/mL (≈ 44 µM); MIC [33]: > 128 µg/mL |
| C[C@@H]([C@H](NC(=O)[C@H](CC[S+](C)[O-])NC(=O)N[C@@H](Cc1cccc(O)c1)C(=O)O)C(=O)N/C=C1\O[C@@H](n2ccc(=O)[nH]c2=O)[C@H](O)[C@@H]1O)N(C)C(=O)[C@@H](N)Cc1cccc(O)c1 (some centres undefined) | – | – | – | – | – | – | – | 8.33 | – | – | – | – | – | – | – | – | – | – | – | – | MIC [35]: 32 µg/mL (≈ 36.7 µM) |
| C[C@H](N)C(=O)N(C)[C@@H](C)[C@H](NC(=O)[C@H](C)NC(=O)N[C@@H](Cc1c[nH]c2ccccc12)C(=O)O)C(=O)N/C=C1/CC(O)[C@H](n2ccc(=O)[nH]c2=O)O1 (some centres undefined) | – | – | – | – | – | – | – | – | – | – | – | – | – | – | – | – | – | – | – | – | pIC50 [34]: 7.66 |
